Data on four compounds can be found in US4751235A, “Anti-atherosclerotic indolizine derivatives” (Sandoz Pharm. Corp., priority 1986, dated 1988).

By ED50 is commonly meant the dose at which the effect has come halfway, by size or by number of responders.

Assay [1] concerns 3 β-hydroxysterol synthesis. Kind of assay: Test B. In Vivo Cholesterol Biosynthesis Inhibition Test. The following applies: Rattus norvegicus, rats, oral administration, read-out: ED50 (dose producing 50% inhibition of 3 β-hydroxysterol synthesis). The procedure: Test B. In Vivo Cholesterol Biosynthesis Inhibition Test: This test is also known and is carried out as described on pages 60-61 of said application Ser. No. 06/741,903 and on page 33 of World (PCT) Published Patent Application No. 84/02131, both of which are hereby incorporated by reference as if set forth herein in their entirety.

A further assay has as its target T1, HMG-CoA reductase (Rattus norvegicus, UniProt P51639).
T1 construct: from tissue; host or cells: microsomes (printed); rat liver by own knowledge of the cited method
T1 sequence (P51639 1-887): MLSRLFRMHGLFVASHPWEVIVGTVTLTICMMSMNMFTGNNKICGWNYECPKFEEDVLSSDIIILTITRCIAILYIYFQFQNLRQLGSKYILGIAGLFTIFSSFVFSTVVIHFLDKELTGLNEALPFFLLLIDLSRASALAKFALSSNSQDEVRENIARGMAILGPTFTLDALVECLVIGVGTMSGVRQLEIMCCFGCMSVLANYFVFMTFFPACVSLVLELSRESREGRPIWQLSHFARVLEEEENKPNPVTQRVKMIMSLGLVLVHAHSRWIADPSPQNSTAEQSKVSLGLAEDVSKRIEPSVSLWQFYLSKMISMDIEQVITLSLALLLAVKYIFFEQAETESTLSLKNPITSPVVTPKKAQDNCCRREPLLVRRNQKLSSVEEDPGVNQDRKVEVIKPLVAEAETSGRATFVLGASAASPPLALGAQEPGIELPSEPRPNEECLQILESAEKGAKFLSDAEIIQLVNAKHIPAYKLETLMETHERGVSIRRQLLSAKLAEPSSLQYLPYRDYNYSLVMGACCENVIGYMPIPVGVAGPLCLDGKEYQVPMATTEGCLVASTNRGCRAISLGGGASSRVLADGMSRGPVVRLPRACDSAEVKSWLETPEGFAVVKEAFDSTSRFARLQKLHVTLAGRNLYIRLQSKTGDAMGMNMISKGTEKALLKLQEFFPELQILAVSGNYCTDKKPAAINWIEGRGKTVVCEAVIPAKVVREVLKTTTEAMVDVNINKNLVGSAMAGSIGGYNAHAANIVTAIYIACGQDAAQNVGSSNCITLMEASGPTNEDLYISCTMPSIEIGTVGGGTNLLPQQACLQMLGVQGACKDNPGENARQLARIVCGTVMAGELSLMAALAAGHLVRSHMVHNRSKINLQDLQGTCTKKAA
In words: Test A. In Vitro Microsomal Assay of HMG-CoA Reductase Inhibition. Format: biochemical. The following applies: read-out: IC50 (concentration producing 50% inhibition of HMG-CoA reductase activity). The protocol:
Test A. In Vitro Microsomal Assay of HMG-CoA Reductase Inhibition:
This test is known and is carried out as described on pages 59-60 of application Ser. No. 06/741,903 (filed June 6, 1985) and on page 30 of World (PCT) Published Patent Application No. 84/02131 both of which are hereby incorporated by reference as if set forth herein in their entirety. The concentration of the test substance (compound of Formula I) in the assay system is 0.0005-2,000 μmolar. The obtained IC50 is the concentration of the test substance in the assay system observed or calculated to produce a 50% inhibition of HMG-CoA reductase activity.

SMILES strings stand for the structures. Structures can show the parent of a compound that is named as a salt.

For the compound `CC[C@H](C)C(=O)O[C@H]1CCC=C2C=C[C@H](C)[C@H](CC[C@@H]3C[C@@H](O)CC(=O)O3)[C@H]21` [Compactin], the ED50 in assay [1] was 3.5 mg/kg.

For `CC[C@H](C)C(=O)O[C@H]1C[C@@H](C)C=C2C=C[C@H](C)[C@H](CC[C@@H]3C[C@@H](O)CC(=O)O3)[C@H]21` [Mevinolin], the median effective dose (ED50) in assay [1] came to 0.41 mg/kg. As for `CCOC(=O)C[C@H](O)C[C@H](O)/C=C/c1c(C(C)C)c2ccccn2c1-c1ccc(F)cc1` (relative stereo) [Example 1, 7-[3-(4-fluorophenyl)-1-(1-methylethyl)-2-indolizinyl]-3,5,-dihydroxy-6-heptenoic acid, ethyl ester (trans)], the ED50 in assay [1] was 0.05 mg/kg. On to `CC(C)c1c(/C=C/[C@@H](O)C[C@@H](O)CC(=O)O)c(-c2ccc(F)cc2)n2ccccc12` (relative stereo) [Example 2, 7-[3-(4-fluorophenyl)-1-(1-methylethyl)-2-indolizinyl]-3,5,-dihydroxy-6-heptenoic acid, sodium salt (trans)], for which the IC50 at HMG-CoA reductase amounted to 11 nM.
